We go through two molecules from patent publication US8273754B2, “Substituted 1H-pyrazolo[3,4-D]pyrimidine-6-amine compounds” (ArQule, Inc., priority 2008, dated 2012).

Like-named read-outs stand apart in the source and are kept apart here. Where only a bound is given, the exact number is not on record here.

One series concerns cancer cells. Nature of the series: MTS cell growth inhibition assay (72 hours). It counts as cell-based. The gist of the method:
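Cells in DMEM with 1% FBS, seeded 18 h, then compound-treated 72 h at 37 °C. Viability by MTS/PMS for 4 h, formazan absorbance at 492 nm; IC50 taken as concentration giving 50% absorbance drop, activity banded by percent inhibition.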

A further series addresses T1, FGFR2 (N549H) (Homo sapiens, UniProt P21802, N549H).
T1 construct: purchased Millipore 14-742
The series is described as follows: fluorescent ELISA assay for inhibitors of FGFR2 kinase. It counts as biochemical. Particulars: Pyk2 peptide substrate, 60 minutes. The gist of the method:
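FGFR2 enzyme (0.5 μM) phosphorylates biotinylated Pyk2 peptide (37 μM) with 12.5 μM ATP added, in Tris-HCl buffer containing 10 mM MgCl2, 2 mM DTT and 75 μM ATP, for 60 min. Peptide captured on streptavidin 30 min at room temperature; phosphotyrosine detected by antibody, alkaline phosphatase secondary and Attophos fluorescence (ex 400/em 595 nm). Inhibition seen as signal decrease.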

[1] abbreviates: Homo sapiens, DLD-1, 72 h, DLD-1 cells, read-out: DLD-1 MTS 72 hr at 10 μM.
The mark [2] stands for this setting: Homo sapiens, KATO III, 72 h, KATO III cells, read-out: KATO III MTS 72 hr at 10 μM.
[3] abbreviates: Homo sapiens, MDA-MB-231, 72 h, MDA-MB-231 cells, read-out: MDA-MB-231 MTS 72 hr at 10 μM.
[4] abbreviates: Homo sapiens, NCI-H1299, 72 h, NCI-H1299 cells, read-out: NCI-H1299 MTS 72 hr at 10 μM.
The mark [5] stands for this setting: PaCa-2, 72 h, PACA-2 cells, read-out: PACA-2 MTS 72 hr at 10 μM.

T1 sequence (P21802 22-821 N549H): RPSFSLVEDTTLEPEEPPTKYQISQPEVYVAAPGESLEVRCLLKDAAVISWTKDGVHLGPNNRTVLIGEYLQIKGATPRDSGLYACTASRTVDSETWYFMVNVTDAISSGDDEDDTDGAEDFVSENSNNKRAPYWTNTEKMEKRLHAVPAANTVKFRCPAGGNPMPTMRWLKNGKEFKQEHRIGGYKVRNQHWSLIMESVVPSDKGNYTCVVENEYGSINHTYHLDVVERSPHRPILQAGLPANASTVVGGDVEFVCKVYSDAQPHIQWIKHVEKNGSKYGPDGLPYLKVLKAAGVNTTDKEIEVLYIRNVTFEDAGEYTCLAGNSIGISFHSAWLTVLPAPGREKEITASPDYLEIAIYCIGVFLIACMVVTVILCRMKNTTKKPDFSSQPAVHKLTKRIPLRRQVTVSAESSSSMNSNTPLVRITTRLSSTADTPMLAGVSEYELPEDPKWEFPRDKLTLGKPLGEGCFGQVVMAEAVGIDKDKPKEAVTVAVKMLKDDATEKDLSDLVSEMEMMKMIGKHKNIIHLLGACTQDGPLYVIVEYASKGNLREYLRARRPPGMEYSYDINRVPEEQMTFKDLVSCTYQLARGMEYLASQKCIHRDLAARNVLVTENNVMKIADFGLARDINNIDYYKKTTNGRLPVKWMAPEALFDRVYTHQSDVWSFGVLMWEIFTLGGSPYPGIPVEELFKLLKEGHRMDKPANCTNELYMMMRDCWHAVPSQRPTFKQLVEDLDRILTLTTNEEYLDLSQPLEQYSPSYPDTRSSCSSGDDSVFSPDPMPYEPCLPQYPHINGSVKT

Turning to `Nc1nc(NC2Cc3ccccc3N(S(=O)(=O)c3ccc(Cl)cc3Cl)C2)c2cn[nH]c2n1` (centres unmarked) [Compound 14, N^4-(1-(2,4-dichlorophenylsulfonyl)-1,2,3,4-tetrahydroquinolin-3-yl)-1H-pyrazolo[3,4-d]pyrimidine-4,6-diamine], the melting point is 153 to 163 °C. Further, the inhibition at 10 µM in the series with cancer cells (setting [1]) was under 50%. Besides, in the series on cancer cells (setting [2]), the inhibition at 10 µM lay in the range of 50 to 79%. Moreover, in the series on cancer cells (setting [3]), the inhibition at 10 µM was under 50%. For the same molecule, the inhibition at 10 µM in the series on cancer cells (setting [4]) was under 50%. Further, in the series on cancer cells (setting [5]), the inhibition at 10 µM was under 50%. Moreover, the IC50 against FGFR2 (N549H) turned out to be 0.23 µM.

In the case of `Nc1nc(NC2Cc3ccccc3N(Cc3cccc(C(F)(F)F)c3)C2)c2cn[nH]c2n1` (centres unmarked) [Compound 5, N^4-(1-(3-(trifluoromethyl)benzyl)-1,2,3,4-tetrahydroquinolin-3-yl)-1H-pyrazolo[3,4-d]pyrimidine-4,6-diamine], the melting point was 89 to 94 °C. For the same molecule, in the series on cancer cells (setting [1]), the inhibition at 10 µM is under 50%. In the series with cancer cells (setting [2]), the inhibition at 10 µM fell in the range of 50 to 79%. The inhibition at 10 µM in the series on cancer cells (setting [3]) was under 50%. For the same molecule, the inhibition at 10 µM with cancer cells (setting [4]) is under 50%. The inhibition at 10 µM with cancer cells (setting [5]) is under 50%. In addition, on FGFR2 (N549H), it took 10.7 µM to reach half-maximal inhibition (IC50).
